Data reported in patent publication US12180388B2, “Method of treatment of a surface” (Conopco, Inc., priority 2018, dated 2024).

Assays:
Vibrio anguillarium = experiment: Single-species biofilm (microfouling) growth inhibition, crystal violet biomass; type: cell-based; details: 24 hours, untreated control 0.5
Experimental: (§1) Fresh stock solution of lactam was prepared at 20 mM in DMSO. Lactam stock was then serially diluted in tissue culture plates in 100% ethanol first ten-fold and subsequently to the desired concentrations. Plates were then left to dry overnight in a fume hood.
(§2) Single species plates were inoculated with each 1×10^6 bacteria/Aspergillus in marine broth and left for 24 hours. Multispecies plates were inoculated with 1×10^5 S. algae, V. anguillarium V. alginolyticus and 1×10^6 C. marina, A. brasiliensis, P. atlantica, C. lytica in marine broth and left for 24 hours, 48 and 72 hours. Plates were washed twice and left overnight to dry. Crystal violet (0.05% w/v) was added for 20 minutes and destained using 100% ethanol. Biomass was measured by optical density (OD) at 570 nm.
(§3) In this experiment, the plates were treated with lactam at levels of 0.0312 mM to 2 mM as well as an untreated control. The specific levels of lactam measured were of 0.0312 mM, of 0.0625 mM, of 0.125 mM, of 0.25 mM, of 0.5 mM, 1 mM, and 2 mM. This would equate to levels of from ˜6 ppm ([…]) to 400 ppm (2 mM), and to wt. % of 0.0006 wt. % ([…]) to 0.04 wt. % (2 mM). The lactam was provided in a DMSO/ethanol solvent to the plates. The plate was then inoculated with the marine organism or mixture thereof. The rate of growth of the culture was measured after 24 hours days by optical density.

Aspergillus brasiliensis = experiment: as above; type: cell-based; details: 24 hours, untreated control 1.1
Experimental: as §1, §2, §3

Cellulophaga lytica = experiment: as above; type: cell-based; details: 24 hours; for Optical Density (570 nm): untreated control 0.7; for lactam concentration with biofilm growth inhibition effect: Cellulophaga lytica
Experimental: as §1, §2, §3

[1] = tested on: mixture of the 7 marine organisms (Pseudoalteromonas atlantica, Cellulophaga lytica, Shewanella algae, Cobetia marina, Vibrio anguillarium, Vibrio …); experiment: Multispecies biofilm (microfouling) growth inhibition, crystal violet biomass; type: cell-based, mixture of 7 marine organisms; details: for lactam concentration that inhibited biofilm growth: 7 marine organism mixture, 24, 48 and 72 hr
Experimental: as §2, with “Fresh stock solution of lactam was prepared at 20 mM in DMSO. Lactam stock was then serially diluted in tissue culture plates in 100% ethanol first ten-fold and subsequently to the desired concentrations. Plates were then left to dry overnight in a fume hood. Single” for “Single”
The marine species were as used for example 2: Shewanella algae, Cobetia marina, Vibrio alginolyticus, or Pseudoalteromonas atlantica, Aspergillus brasiliensis, Vibrio anguillarium, and Cellulophaga lytica. This time they were used in combination as a mixture to better model the marine environment, and the growth inhibition effect of the lactams on the challenging marine organism mixture was tested. This a challenging test as the presence of marine organisms where the lactam didn't have a growth inhibition effect would be expected to lead to biofilm growth. The results are shown in FIGS. 4 and 5 and Tables 2 and 3.

[2] = 0.0312 mM lactam, 24 hr, untreated control 1.3
[3] = 0.0312 mM lactam, 48 hr, untreated control 1.8
[4] = 0.0312 mM lactam, 72 hr, untreated control 1.1
[5] = 0.0625 mM lactam, 24 hr, untreated control 1.3
[6] = 0.0625 mM lactam, 48 hr, untreated control 1.8
[7] = 0.0625 mM lactam, 72 hr, untreated control 1.1
[8] = 0.125 mM lactam, 24 hr, untreated control 1.3
[9] = 0.125 mM lactam, 48 hr, untreated control 1.8
[10] = 0.125 mM lactam, 72 hr, untreated control 1.1
[11] = 0.25 mM lactam, 24 hr, untreated control 1.3
[12] = 0.25 mM lactam, 48 hr, untreated control 1.8
[13] = 0.25 mM lactam, 72 hr, untreated control 1.1
[14] = 0.5 mM lactam, 24 hr, untreated control 1.3
[15] = 0.5 mM lactam, 48 hr, untreated control 1.8
[16] = 0.5 mM lactam, 72 hr, untreated control 1.1
[17] = 1 mM lactam, 24 hr, untreated control 1.3
[18] = 1 mM lactam, 48 hr, untreated control 1.8
[19] = 1 mM lactam, 72 hr, untreated control 1.1
[20] = 2 mM lactam, 24 hr, untreated control 1.3
[21] = 2 mM lactam, 48 hr, untreated control 1.8
[22] = 2 mM lactam, 72 hr, untreated control 1.1

C=C1NC(=O)C=C1c1ccc(Cl)cc1 [lactam 488, 4-(4-chlorophenyl)-5-methylene-pyrrol-2-one]
Optical Density (570 nm) (Vibrio anguillarium; 0.0312 mM lactam): 0.5 | Optical Density (570 nm) (Vibrio anguillarium; 0.0625 mM lactam): 0.6 | Optical Density (570 nm) (Vibrio anguillarium; 0.125 mM lactam): 0.7 | Optical Density (570 nm) (Vibrio anguillarium; 0.25 mM lactam): 0.6 | Optical Density (570 nm) (Vibrio anguillarium; 0.5 mM lactam): 0.2 | Optical Density (570 nm) (Vibrio anguillarium; 1 mM lactam): 0.1 | Optical Density (570 nm) (Vibrio anguillarium; 2 mM lactam): 0.1 | Optical Density (570 nm) (Aspergillus brasiliensis; 0.0312 mM lactam): 0.5 | Optical Density (570 nm) (Aspergillus brasiliensis; 0.0625 mM lactam): 0.6 | Optical Density (570 nm) (Aspergillus brasiliensis; 0.125 mM lactam): 0.5 | Optical Density (570 nm) (Aspergillus brasiliensis; 0.25 mM lactam): 0.4 | Optical Density (570 nm) (Aspergillus brasiliensis; 0.5 mM lactam): 0.6 | Optical Density (570 nm) (Aspergillus brasiliensis; 1 mM lactam): 0.5 | Optical Density (570 nm) (Aspergillus brasiliensis; 2 mM lactam): 0.4 | Optical Density (570 nm) (Cellulophaga lytica; 0.0312 mM lactam): 0.9 | Optical Density (570 nm) (Cellulophaga lytica; 0.0625 mM lactam): 0.9 | Optical Density (570 nm) (Cellulophaga lytica; 0.125 mM lactam): 0.8 | Optical Density (570 nm) (Cellulophaga lytica; 0.25 mM lactam): 0.8 | Optical Density (570 nm) (Cellulophaga lytica; 0.5 mM lactam): 0.2 | Optical Density (570 nm) (Cellulophaga lytica; 1 mM lactam): 0.2 | Optical Density (570 nm) (Cellulophaga lytica; 2 mM lactam): 0.1 | lactam concentration with biofilm growth inhibition effect (Cellulophaga lytica): > 0.5 mM | Optical Density (570 nm) [1, 2]: 1.3 | Optical Density (570 nm) [1, 3]: 1.5 | Optical Density (570 nm) [1, 4]: 1.4 | Optical Density (570 nm) [1, 5]: 1.4 | Optical Density (570 nm) [1, 6]: 1.8 | Optical Density (570 nm) [1, 7]: 1.4 | Optical Density (570 nm) [1, 8]: 1.2 | Optical Density (570 nm) [1, 9]: 1.7 | Optical Density (570 nm) [1, 10]: 1.2 | Optical Density (570 nm) [1, 11]: 1 | Optical Density (570 nm) [1, 12]: 1.3 | Optical Density (570 nm) [1, 13]: 1.0 | Optical Density (570 nm) [1, 14]: 0.6 | Optical Density (570 nm) [1, 15]: 0.6 | Optical Density (570 nm) [1, 16]: 0.4 | Optical Density (570 nm) [1, 17]: 0.3 | Optical Density (570 nm) [1, 18]: 0.2 | Optical Density (570 nm) [1, 19]: 0.1 | Optical Density (570 nm) [1, 20]: 0.1 | Optical Density (570 nm) [1, 21]: 0.1 | Optical Density (570 nm) [1, 22]: 0.1 | lactam concentration that inhibited biofilm growth [1]: > 0.25 mM

C=C1NC(=O)C=C1c1ccc(C)cc1 [lactam 491, 5-methylene-4-(p-tolyl)pyrrol-2-one]
Optical Density (570 nm) (Vibrio anguillarium; 0.0312 mM lactam): 0.2 | Optical Density (570 nm) (Vibrio anguillarium; 0.0625 mM lactam): 0.7 | Optical Density (570 nm) (Vibrio anguillarium; 0.125 mM lactam): 0.7 | Optical Density (570 nm) (Vibrio anguillarium; 0.25 mM lactam): 0.3 | Optical Density (570 nm) (Vibrio anguillarium; 0.5 mM lactam): 0.4 | Optical Density (570 nm) (Vibrio anguillarium; 1 mM lactam): 0.2 | Optical Density (570 nm) (Vibrio anguillarium; 2 mM lactam): 0.1 | Optical Density (570 nm) (Aspergillus brasiliensis; 0.0312 mM lactam): 0.4 | Optical Density (570 nm) (Aspergillus brasiliensis; 0.0625 mM lactam): 0.5 | Optical Density (570 nm) (Aspergillus brasiliensis; 0.125 mM lactam): 0.5 | Optical Density (570 nm) (Aspergillus brasiliensis; 0.25 mM lactam): 0.5 | Optical Density (570 nm) (Aspergillus brasiliensis; 0.5 mM lactam): 0.5 | Optical Density (570 nm) (Aspergillus brasiliensis; 1 mM lactam): 0.3 | Optical Density (570 nm) (Aspergillus brasiliensis; 2 mM lactam): 0.4 | Optical Density (570 nm) (Cellulophaga lytica; 0.0312 mM lactam): 0.9 | Optical Density (570 nm) (Cellulophaga lytica; 0.0625 mM lactam): 1.0 | Optical Density (570 nm) (Cellulophaga lytica; 0.125 mM lactam): 0.9 | Optical Density (570 nm) (Cellulophaga lytica; 0.25 mM lactam): 0.9 | Optical Density (570 nm) (Cellulophaga lytica; 0.5 mM lactam): 1.0 | Optical Density (570 nm) (Cellulophaga lytica; 1 mM lactam): 0.5 | Optical Density (570 nm) (Cellulophaga lytica; 2 mM lactam): 0.6 | lactam concentration with biofilm growth inhibition effect (Cellulophaga lytica): > 1 mM | Optical Density (570 nm) [1, 2]: 1.2 | Optical Density (570 nm) [1, 3]: 1.7 | Optical Density (570 nm) [1, 4]: 1.3 | Optical Density (570 nm) [1, 5]: 1.1 | Optical Density (570 nm) [1, 6]: 1.8 | Optical Density (570 nm) [1, 7]: 1.2 | Optical Density (570 nm) [1, 8]: 0.9 | Optical Density (570 nm) [1, 9]: 1.6 | Optical Density (570 nm) [1, 10]: 1.0 | Optical Density (570 nm) [1, 11]: 0.9 | Optical Density (570 nm) [1, 12]: 1.4 | Optical Density (570 nm) [1, 13]: 0.9 | Optical Density (570 nm) [1, 14]: 1.0 | Optical Density (570 nm) [1, 15]: 1.2 | Optical Density (570 nm) [1, 16]: 0.9 | Optical Density (570 nm) [1, 17]: 0.7 | Optical Density (570 nm) [1, 18]: 1.3 | Optical Density (570 nm) [1, 19]: 1.2 | Optical Density (570 nm) [1, 20]: 0.2 | Optical Density (570 nm) [1, 21]: 0.2 | Optical Density (570 nm) [1, 22]: 0.3 | lactam concentration that inhibited biofilm growth [1]: > 0.25 mM
